Reference: PMC8406801, “Naringenin Inhibits Platelet Activation and Arterial Thrombosis Through Inhibition of Phosphoinositide 3-Kinase and Cyclic Nucleotide Signaling” (Frontiers in Pharmacology, 2021)
Values joined by “and” are separate entries in the source; they are usually repeats but may differ in a detail not shown here. Identical values can stand only once.

Tests used:
[1] = system: PRP (platelet-rich plasma); assay: ADP (10 μmol/L)-induced aggregation of PRP in vitro; assay type: cell-based, rat; conditions: for Aggregation (%): raw data
Experimental: Washed rat platelets were prepared as described previously ([Gao et al., 2011]) with a minor modification. Briefly, rat blood was drawn from the abdominal aorta into the siliconized vacutainers containing 1:9 (v/v) 3.8% sodium citrate, supplemented with 100 ng/ml prostaglandin E1 (PGE1) and centrifuged at 300 × g for 6 min at room temperature. Platelet-rich plasma (PRP) was obtained, and after the addition of 100 ng/ml PGE1, platelets were pelleted at 900 × g for 10 min. Platelets were washed once in Tyrode’s buffer (12 mM NaHCO3, 138 mM NaCl, 5.5 mM glucose, 2.9 mM KCl, 2 mM MgCl2, 0.42 mM NaH2PO4, 10 mM HEPES, pH 7.4) containing 100 ng/ml PGE1, and finally resuspended in Tyrode’s buffer containing 0.02 U/mL apyrase to a final concentration of 4×10^8 cells/mL. Washed platelets were preincubated with vehicle (0.4% dimethyl sulfoxide) or various concentrations of naringenin in the presence of 2 mM CaCl2 for 5 min at 37°C, and then further stimulated by ADP (10 μM), thrombin (0.2 U/mL) or collagen (2 μg/ml). The maximum platelet aggregation rate was detected within 5 min with continuous stirring.
Platelet aggregation was induced by ADP using washed platelets and PRP. Washed platelets were preincubated with vehicle (containing 0.4% DMSO) or different doses (100, 200, 400, and 800 μM) of naringenin or naringin for 5 min before activation with ADP (10 μM) for 5 min. […] For example, naringenin, at doses of 100 and 800 μM, decreased ADP-induced platelet aggregation to 54.5 ± 6.2% and 6.3 ± 1.7%, respectively (n = 6; p < 0.001, control group platelet aggregation was taken as 100%) (Figure 1F). […] Because dietary flavonoids have been reported to bind plasma proteins and cause the lowering of inhibitory potency in PRP ([Wright et al., 2013]), the ability of naringenin and naringin on platelet function in PRP was investigated to compare their effects with washed platelets.
FIGURE 1 Effects of naringenin and naringin on platelet aggregation. Chemical structure of naringin (A) and naringenin (B). The effects of naringin (C) or naringenin (D) on PRP were measured following stimulation with 10 μmol/L ADP. Rat washed platelet aggregation performed with or without different concentrations of naringin (E) or naringenin (F) was recorded after stimulation with 10 μmol/L ADP. Similarly, Washed platelet aggregation performed with vehicle or various concentrations of naringenin was recorded after stimulation with 0.2 U/mL thrombin (G) or 2 μg/ml collagen (H). WP represents washed platelets. Data are expressed as means ± SD (n = 6), the level of aggregation obtained at 5 min with vehicle-treated samples (0 μM) was taken as 100%. *p < 0.05, **p < 0.01, ***p < 0.001 compared with the vehicle control group.

[2] = system: Akt Ser473 phosphorylation; assay: Immunoblotting of phospho-Akt (Ser473) in ADP-stimulated washed platelets; assay type: cell-based, rat; conditions: single replicates; for p-Akt Ser473 / t-Akt: raw data
Experimental: For in vitro platelet aggregation, aliquots of washed platelets were preincubated with vehicle or various concentrations of naringenin for 5 min and stimulated with ADP (10 μmol/L) under stirring at 37°C for 5 min. For ex vivo platelet aggregation, PRP was incubated at 37°C for 5 min and stimulated with ADP (5 μmol/L) under stirring at 37 °C. The platelet aggregation was terminated by adding ethylenediaminetetraacetic acid (EDTA; 10 mM). Total protein was prepared using RIPA lysis buffer and protein content was determined by bicinchoninic acid (BCA) protein assay kit. Equal amounts of platelet proteins (30 μg) were separated on 10% SDS polyacrylamide gel electrophoresis (SDS-PAGE) and then transferred to poly vinylidene difluoride (PVDF) membranes and subjected to western blot. Blots were blocked with TBS-Tween 20 containing 5% BSA and probed with primary antibodies diluted in blocking solution at 4°C overnight followed by incubation with the corresponding HRP secondary antibodies. The protein bands were visualized using enhanced chemiluminescence (ECL).
FIGURE 4 Naringenin inhibits PI3K-mediated signaling in ADP-induced platelets. Washed rat platelets were preincubated without or with naringenin at 37°C for 5 min, and then stimulated with ADP (10 μmol/L) under stirring for 5 min. Platelet proteins were then extracted and analyzed by immunoblotting using PI3Kp110β antibody (A) and phospho-specific antibodies such as Akt^Ser473 (B), Akt^Thr308 (C), ERK1/2^Thr202/Tyr204 (D) and GSK3β^Ser9 (E). Total level of GAPDH was measured on each sample as a loading control. The blots shown are representative of three separate experiments. The relative protein expression levels were quantified by ImageJ 1.47v software. The level of relative protein expression obtained with vehicle control (0 μM) was taken as 1. R represents the level of relative protein expression in resting platelets. Data are expressed as means ± SD (n = 3). *p < 0.05, **p < 0.01, ***p < 0.001 compared with the vehicle control group.
FIGURE 5 Effects of naringenin combined with PI3K pan inhibitor LY294002 on platelet aggregation and Akt phosphorylation. Washed rat platelets were preincubated with naringenin (200 μmol/L) alone, the PI3K pan inhibitor LY294002 (5 μmol/L) alone or both for 5 min prior to ADP (10 μmol/L) activation. After stimulation with ADP, platelet aggregation was quantified and expressed as a percentage (A). Data are expressed as means ± SD (n = 6). ***p < 0.001 compared with the ADP-treated group, ^### p < 0.001 compared with naringenin alone or LY294002 alone. Platelet proteins were then extracted and specific antibodies were used to measure the level of total and phosphorylated Akt (B). The blots shown are representative of three separate experiments. The relative protein expression levels were quantified by ImageJ 1.47v software. The level of phosphorylation obtained in the ADP-treated group was taken as 1. Data are expressed as means ± SD (n = 3). ***p < 0.001 compared with the ADP-treated group, ^### p < 0.001 compared with naringenin alone or LY294002 alone.

[3] = Figure 5B: ADP 10 μM, naringenin 200 μM alone

## O=C1C[C@@H](c2ccc(O)cc2)Oc2cc(O)cc(O)c21 [Naringenin]
[1]; ADP-induced, 100 μM
  decrease of aggregation in PRP: 18%
[1]; PRP, ADP 10 μmol/L, compound 100 μM, single replicates
  Aggregation (%): 44.9% and 44.8% and 49.7% and 47.9% and 48.3%
[1]; PRP, ADP 10 μmol/L, compound 100 μM, single replicates, 100 µM
  Aggregation % of control: 78.3 % of control and 86.8 % of control and 83.7 % of control and 79.5 % of control and 84.4 % of control
[1]; PRP, ADP 10 μmol/L, compound 200 μM, single replicates
  Aggregation (%): 42.5% and 44.3% and 48.9% and 47.2% and 39.7%
[1]; PRP, ADP 10 μmol/L, compound 200 μM, single replicates, 200 µM
  Aggregation % of control: 77.4 % of control and 85.4 % of control and 82.4 % of control and 69.3 % of control and 74.1 % of control
[1]; PRP, ADP 10 μmol/L, compound 400 μM, single replicates
  Aggregation (%): 39.7% and 31.6% and 37.9% and 34.1% and 44.8%
[1]; PRP, ADP 10 μmol/L, compound 400 μM, single replicates, 400 µM
  Aggregation % of control: 66.9 % of control and 69.3 % of control and 55.2 % of control and 66.2 % of control and 59.6 % of control and 78.3 % of control
[1]; PRP, ADP 10 μmol/L, compound 800 μM, single replicates
  Aggregation (%): 30.9% and 33.6% and 36.0% and 28.9% and 28.6% and 38.4%
[1]; PRP, ADP 10 μmol/L, compound 800 μM, single replicates, 800 µM
  Aggregation % of control: 58.7 % of control and 62.9 % of control and 50.5 % of control and 50.0 % of control and 67.1 % of control
[1]; Rattus norvegicus, PRP, ADP 10 μmol/L, compound 100 μM, single replicates, read-out: Aggregation % of control
  activity at 100 µM: 78.4%
[1]; Rattus norvegicus, PRP, ADP 10 μmol/L, compound 200 μM, single replicates, read-out: Aggregation % of control
  activity at 200 µM: 74.2%
[1]; Rattus norvegicus, PRP, ADP 10 μmol/L, compound 800 μM, single replicates, read-out: Aggregation % of control
  activity at 800 µM: 54%
[2]; ADP 10 μmol/L, 100 μM
  p-Akt Ser473 / t-Akt: 0.1822 and 0.1825 and 0.1171
  p-Akt Ser473 / t-Akt (Fold to ADP only): 0.4309 Fold to ADP only and 0.4315 Fold to ADP only and 0.2769 Fold to ADP only
[2]; ADP 10 μmol/L, 200 μM
  p-Akt Ser473 / t-Akt: 0.1611 and 0.1671 and 0.0697
  p-Akt Ser473 / t-Akt (Fold to ADP only): 0.3810 Fold to ADP only and 0.3953 Fold to ADP only and 0.1648 Fold to ADP only
[2]; ADP 10 μmol/L, 400 μM
  p-Akt Ser473 / t-Akt: 0.1761 and 0.0969 and 0.0748
  p-Akt Ser473 / t-Akt (Fold to ADP only): 0.4165 Fold to ADP only and 0.2292 Fold to ADP only and 0.1768 Fold to ADP only
[2]; ADP 10 μmol/L, 800 μM
  p-Akt Ser473 / t-Akt: 0.0725 and 0.0226 and 0.0288
  p-Akt Ser473 / t-Akt (Fold to ADP only): 0.1714 Fold to ADP only and 0.0534 Fold to ADP only and 0.0681 Fold to ADP only
[2]; [3]
  p-Akt Ser473 / t-Akt: 0.5270 and 0.4157 and 0.3312
  p-Akt Ser473 / t-Akt (Fold to ADP only): 0.6055 Fold to ADP only and 0.4777 Fold to ADP only and 0.3805 Fold to ADP only
